Reference: patent publication US20260372305A1, “A METHOD FOR CONTROLLING WEEDS” (SYNGENTA CROP PROTECTION AG, priority 2022, published 2026)
Several values for one entry are separate records, joined by “and”; a condition that tells them apart may be missing. Equal entries are not always repeated.

What was measured:
[1] = test system: Amaranthus tuberculatus, homozygous for the deletion of glycine at amino acid 210 in PPX2L (G210 deletion); assay: Postemergence control of Amaranthus tuberculatus with G210 deletion in PPX2L (Example 2); type: in vivo
[2] = test system: Amaranthus tuberculatus with a mutation at amino acid 210; assay: Field trial: control of Amaranthus tuberculatus visually assessed as % weed control (Example 3); type: in vivo
Procedure: A field trial was carried out in a plot in Canada. The plot size per replicate was set to 10 m^2. Compound 1 and the standard product saflufenacil were applied to about 4 inch (about 10 cm) tall Amaranthus tuberculatus with a mutation at amino acid 210, using a water volume of 300 I/ha. The efficacy of the tested compounds was visually assessed 14 days after the application and expressed in % weed control, whereas ratings range from 100% being complete control and 0% representing weed populations/growth similar to what is observed in the untreated check. Only species present at a sufficient density and consistency were assessed for reliable ratings.

Compound | % Survival out of 14 repetitions ([1]; […], 0.5 g ai/ha^−1, postemergence, 14 days after application, Agridex 1% by volume) [%] | % Survival out of 14 repetitions ([1]; […], 1 g ai/ha^−1, postemergence, 14 days after application, Agridex 1% by volume) [%] | % Survival out of 14 repetitions ([1]; […], 2 g ai/ha^−1, postemergence, 14 days after application, Agridex 1% by volume) [%] | % Survival out of 14 repetitions ([1]; […], 4 g ai/ha^−1, postemergence, 14 days after application, Agridex 1% by volume) [%] | % Survival out of 14 repetitions ([1]; […], 8 g ai/ha^−1, postemergence, 14 days after application, Agridex 1% by volume) [%] | % Survival out of 14 repetitions ([1]; […], 16 g ai/ha^−1, postemergence, 14 days after application, Agridex 1% by volume) [%] | % Survival out of 14 repetitions ([1]; […], 32 g ai/ha^−1, postemergence, 14 days after application, Agridex 1% by volume) [%] | % Survival out of 14 repetitions ([1]; […], 64 g ai/ha^−1, postemergence, 14 days after application, Agridex 1% by volume) [%] | plant survival ([1]; at or beyond 32 g ai/ha) | control of PPO inhibitor herbicide resistant Amaranthus tuberculatus with a mutation at amino acid 210 compared with fomesafen ([1]; in vivo) | control of Amaranthus tuberculatus with a mutation at codon 210 compared to saflufenacil [2] | % Survival out of 14 repetitions ([1]; in vivo) | plant survival ([1]; in vivo)
CCOC(=O)[C@]1(C)CC(c2cc(-n3c(=O)n(C)c(=S)n(C)c3=O)c(F)cc2Cl)=NO1 [compound 1, ethyl (5S)-3-[2-chloro-5-(3,5-dimethyl-2,6-dioxo-4-thioxo-1,3,5-triazinan-1-yl)-4-fluoro-phenyl]-5-methyl-4H-isoxazole-5-carboxylate] | 100 | 100 | 100 | 100 | 86 | 50 | 0 | 0 | no plants survived | superior control | equivalent, if not slightly improved control | – | –
CS(=O)(=O)NC(=O)c1cc(Oc2ccc(C(F)(F)F)cc2Cl)ccc1[N+](=O)[O-] [fomesafen, reference compound] | – | – | – | – | – | – | – | – | – | – | – | 100% and 93% | significant plant survival
